# Reference: patent US7332290B2, “Dectection of AMACR cancer markers in urine” (The Regents of the University of Michigan, priority 2001, dated 2008)
# Peptide text beside a SMILES is read from it. * marks the point of attachment. Cbz = O=C(OCc1ccccc1)*; CH2F = FC*
# Tests used:
# Format in all cases: cell-based
# LNCaP cells = assay: Androgen/anti-androgen treatment of LNCaP cells, Western blot of AMACR and PSA; details: LNCaP cells exposed to synthetic androgen, 1 nM, 24 and 48 h
# Description: Prostate cell lines (RWPE-1, LNCaP, PC3 and DU145) were obtained from the American Tissue Culture Collection. Cells were maintained in RPMI-1640 with 8% decomplemented fetal bovine serum, 0.1% glutamine and 0.1% penicillin and streptomycin (BioWhittaker, Walkersville, Md.). Cells were grown to 75% confluence and then treated for 24 and 48 with the antiandrogen bicalutamide (CASODEX, Zeneca Pharmaceuticals, Plankstadt, Germany) at a final concentration of 20 μM or with methyltrienolone (synthetic androgen (R1881); NEN, Life Science Products, Boston, Mass.) at a final concentration of 1 nM. Cells were harvested and lysed in NP-40 lysis buffer containing 50 mmol/L Tris-HCl, pH 7.4, 1% Nonidet P-40 (Sigma, St. Louis, Mo.) and complete proteinase inhibitor cocktail (Roche, Ind., USA). 15 μg of protein extracts were mixed with SDS sample buffer and electrophoresed onto a 10% SDS-polyacrylamide gel under reducing conditions. After transferring, the membranes (Amersham Pharmacia Biotech, Piscataway, N.J.) were incubated for 1 hour in blocking buffer (Tris-buffered saline with 0.1% Tween and 5% nonfat dry milk). The AMACR antibody was applied at 1:10.000 diluted blocking buffer overnight at 4° C. […]
# HDAC activity = assay: DNA microarray of EZH2-transfected cells, EZH2-mediated gene silencing
# Description: Other molecules have been similarly tested with this approach. Cells were transfected with different EZH2 constructs and transfection efficiency was monitored by beta-galactosidase assay and was approximately 30-50%. EZH2.SET mutant expressing samples were compared to EZH2 expressing samples using the SAM analysis package (Tusher et al., PNAS 98:5116 [2001]). Data was pre-processed by multiplication by a normalization factor to adjust the aggregate ratio of medians to one, log base 2 transformed and median centered each array, individually. This pre-processed data was divided into 2 groups for comparison using a two-class, unpaired t-test. […] These 161 genes were supplemented by the values for EZH2 and then analyzed using Cluster implementing average linkage hierarchical clustering of genes. […]
# PcG proteins have been proposed to mediate their functions by repression of target genes (Laible et al., supra; Jacobs et al., Semin Cell Dev. Biol. 10:227 [1999]). To begin to test this hypothesis, RWPE prostate cells were transiently transfected with wild-type EZH2 and global gene expression alterations were monitored using DNA microarrays. […]
# prostate cells = assay: WST-1 cell proliferation assay after siRNA transfection; details: WST-1, caspase inhibitor added to EZH2 siRNA treated cells
# Description: 21-nucleotide sense and antisense RNA oligonucleotides were chemically synthesized (Dharmacon Research Inc.) and annealed to form duplexes. The siRNA employed in the study were targeted to the region corresponding from 85 to 106 of the reported human EZH2 (NM004456). Control siRNA duplexes targeted luciferase, lamin and AMACR (NM014324). The human transformed prostate cell line RWPE (Webber et al., Carcinogenesis 18:1225 [1997]) and PC3 were plated at 2×10^5 cells per well in a 12 well plate (for immunoblot analysis, cell counts, and fluorescence activated cell sorting (FACS) analysis) and 1.5×10^4 cell per well in a 96 well plate (for WST-1 proliferation assays). Twelve hours after plating, the cells were transfected with 60 picomoles of siRNA duplex, sense or antisense oligonucleotides (targeting EZH2) using oligofectamine (Invitrogen). […] Cell viability was assessed 60 hours after the initial transfection.
# Cell proliferation was determined with the colorimetric assay of cell viability, based on the cleavage of tetrazolium salt WST-1 by mitochondrial dehydrogenases as per manufacturers instructions (Roche, Inc.). The absorbance of the formazan dye formed, which directly correlates with the number of metabolically active cells in the culture, was measured at 450 nm (Bio-Tek instruments), an hour after the addition of the reagent. […]
smiles,measurement,setting,value
"C[C@]1(O)CC[C@H]2[C@@H]3CCC4=CC(=O)CCC4=C3C=C[C@@]21C [R1881, methyltrienolone]",AMACR expression,LNCaP cells,no increase in AMACR expression
CC(/C=C/C(=O)NO)=C\[C@@H](C)C(=O)c1ccc(N(C)C)cc1 [trichostatin A],effect on EZH2-mediated gene silencing,HDAC activity,completely abrogated the effects of EZH2
COC(=O)C[C@H](NC(=O)[C@H](C)NC(=O)[C@@H](NC(=O)OCc1ccccc1)C(C)C)C(=O)CF [z-VAD-fmk] (Cbz-Val-Ala-Asp(OMe)-CH2F),attenuation of EZH2 siRNA induced inhibition of cell proliferation,prostate cells,failed to attenuate
